Measurements as given in patent US6153614A, “Piperazinyl pyrimidine dione compounds selective for adrenoceptors” (Abbott Laboratories, priority 1998, dated 2000).
pKi: −log10 of the molar value.

Tests used:
[1] = system: EPI induced increase in canine IUP; experiment: In vivo intraurethral pressure (IUP) in canines, inhibition of EPI induced increase; set-up: species or system Beagle dogs; conditions: in vivo pseudo pA2 by Schild analysis; antagonist i.v.; epinephrine; propranolol-treated dogs; * (tamsulosin): add 0.4 if slope adjusted to 1
Method: The intraurethral pressure (IUP) model in aged canines is an accepted model of measuring the effect of prostate smooth muscle contraction on urethral tone. Canines also have an enclosed prostate covering the urethral shaft and thus provide an anatomical correlate with humans.
Beagle dogs (Marshall Farms) greater that 2 years of age and weighing between 12 and 15 kg were pre-anesthetized with thiopental sodium 15 mg/kg i.v. (Pentothal™, Abbott Laboratories, Abbott Park, Ill.) then placed under general anesthesia (isoflurane). A 7F Swan-Ganz balloon catheter (Multiflex-list no. 41224-01, Abbott) was lubricated with a water soluble jelly, inserted into the urethral orifice and advanced approximately 40 cm in male dogs (considerably less in females) until the balloon tip was placed well inside the bladder. The balloon was then inflated with 1 mL of room air, and the catheter was slowly withdrawn just past the first resistance that is felt at the bladder neck. Preliminary experiments in which dogs were sacrificed after such placement confirmed that this technique results in consistent positioning of the balloon within the prostatic urethra in males or the corresponding location in females. The balloon port of the catheter was connected to a Gould Statham P23Dd pressure transducer interfaced to a computerized data acquisition system (Modular Instruments, Inc., Malvern, Pa.) for the measurement of intraurethral pressure (IUP).
Dogs were then treated with propranolol to block the β-adrenoceptor agonist effects of test agonists. Dose-response curves of the intraurethral pressor effect of epinephrine (EPI) were obtained before and after each of up to 3 increasing doses of a test antagonist (i.v.). Fifteen minutes were allowed after each antagonist dose for equilibration before the next agonist dose-response was initiated. The increase in IUP caused by a given agonist dose was allowed to return to baseline before the next dose was given. The estimated antagonist dissociation constant (in vivo pseudo pA2) was determined by Schild analysis (Brune, et al., Drug Development Research, 34:267-275 (1995).

[2] = molecular target: T1, α1b (hamster) adrenoceptor (Mesocricetus auratus, UniProt P18841); experiment: Radioligand binding cloned α1b adrenoceptor expressed in LTK cells, [3H]-prazosin; conditions: LTK cell membranes, [3H]prazosin 0.2 nM
T1 construct: expressed in transfected cells; cDNA from TULCO
T1 sequence (P18841 1-515): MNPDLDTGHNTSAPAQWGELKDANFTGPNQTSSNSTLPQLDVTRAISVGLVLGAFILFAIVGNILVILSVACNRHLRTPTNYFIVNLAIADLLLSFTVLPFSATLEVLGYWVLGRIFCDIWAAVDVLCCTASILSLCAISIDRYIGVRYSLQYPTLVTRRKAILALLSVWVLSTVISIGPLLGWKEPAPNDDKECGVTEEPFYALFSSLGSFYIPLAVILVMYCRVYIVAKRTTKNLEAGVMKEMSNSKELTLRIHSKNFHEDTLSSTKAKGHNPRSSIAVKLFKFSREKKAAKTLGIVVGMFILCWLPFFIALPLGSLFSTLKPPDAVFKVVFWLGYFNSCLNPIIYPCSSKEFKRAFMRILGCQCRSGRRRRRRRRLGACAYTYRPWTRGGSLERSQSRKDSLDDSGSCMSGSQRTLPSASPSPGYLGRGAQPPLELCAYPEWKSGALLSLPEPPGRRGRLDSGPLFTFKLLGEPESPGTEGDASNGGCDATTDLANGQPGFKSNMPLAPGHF
Method: (§1) Representative compounds of the invention were evaluated for α-adrenoceptor binding affinity in vitro using [^3 H]-prazosin as the radioligand and two cloned α1 adrenoceptors expressed in LTK cells: α1b (hamster), and α1d (rat). Additionally, binding affinity against the pharmacologically defined α1A adrenoceptor (rat submaxillary gland) was measured.
(§2) The cDNA clones encoding the α-1 adrenoceptors (α1b and α1d) were obtained from TULCO (Triangle Universities Licensing Consortium, Research Triangle Park, N.C.) and inserted into the eukaryotic expression vector SnaB30. In this vector, expression of the adrenoceptor gene is under the transcriptional control of an SV40 early promoter. Positive drug selection is provided by a neomycin-resistance gene. Mouse fibroblast cells (LTK) were transfected with the α1 expression plasmids and grown in Dulbecco's modified Eagle's medium (DMEM) containing 10% fetal calf serum and […] G418. Stable G418-resistant parental lines were generated and successful expression of adrenoceptor protein was monitored using radioligand binding techniques. Stable single cell clones derived from the parental lines were screened in adrenoceptor binding assays to identify clones having high adrenoceptor density. Roller bottle cultures of the cloned lines were used to provide cell membranes for subsequent adrenoceptor binding characterization studies. A cell line containing the SnaB30 vector expressing the human erythropoietin gene served as a negative control.
For adrenoceptor binding assays, large scale membrane preparations were utilized in which 6 million cells were seeded into small (450 cm^2) Corning tissue culture roller bottles. 200 mL of DMEM containing 10% fetal calf serum and […] G418 were added to each roller bottle. A 95% air/5% CO2 gas mixture (sterile) was injected into each roller bottle prior to sealing. The bottles were incubated at 37° C. on a roller rack for 5 days. Cells were re-fed with fresh medium after 3 days in culture.
On the fifth day of culture, growth medium was removed from cells grown in the roller bottles, and the cells were washed twice with PBS (Sigma, 120 mM NaCl, 2.7 mM KCl, 10 mM Na2 HPO4 --NaH2 PO4, pH=7.4). Cells were detached from the roller bottles by incubating for 15 minutes at 37° C. in a Tris-EDTA solution (10 mM Tris, 100 mM NaCl, 1 mM EDTA, pH=7.4). The cell suspension from each roller bottle was decanted into preweighed centrifuge tubes and kept on ice. An aliquot of each cell suspension was generally taken for cell counting. Cells were centrifuged at 3000×G for 5 min at 2-4° C., washed with PBS and recentrifuged. The supernatant was decanted and the pellet was weighed to determine the wet weight of cells. Cells were washed a final time in 40 vol 5 mM Tris-HCl, 5 mM EDTA, pH=7.7, centrifuged at 40,000×G for 10 minutes, homogenized in 10 mL of 50 mM Tris-HCl, 5 mM EDTA (pH=7.4), and diluted to 40 mL/tube. Homogenates were centrifuged at 40,000×G for 10 minutes. The supernatant was decanted and the pellets were rehomogenized in 50 mM Tris-HCl (pH=7.4) and centrifuged as before.
(§3) Briefly, plastic Bioblocks™ (DBM Scientific, Valencia, Calif.) were incubated at 25° C. for 50 minutes with […] of membrane homogenate (diluted with an additional 96 volumes (for cloned adrenoceptors, 12 volumes for submaxillary gland)) in 50 mM Tris-HCl buffer (pH=7.7 at the time of assay), […] of [^3 H]prazosin (0.2 nM final concentration, 75-85 Ci/mmole, DuPont-NEN Corp., Boston, Mass.), and […] of either water (for total binding) or […] phentolamine (final concentration, for non-specific binding). Following equilibration, bound radioligand was separated from free on GF/B filters (presoaked in 0.5% polyethyleneamine) using either a Brandel or Packard cell harvester. Radioactivity was determined by standard liquid scintillation techniques.

[3] = molecular target: T2, α1A adrenoceptor (rat submaxillary gland) (Rattus norvegicus, UniProt P43140); experiment: Radioligand binding α1A (rat submaxillary gland), [3H]-prazosin
T2 construct: from tissue; host or cells: rat submaxillary gland membranes
T2 sequence (P43140 1-466): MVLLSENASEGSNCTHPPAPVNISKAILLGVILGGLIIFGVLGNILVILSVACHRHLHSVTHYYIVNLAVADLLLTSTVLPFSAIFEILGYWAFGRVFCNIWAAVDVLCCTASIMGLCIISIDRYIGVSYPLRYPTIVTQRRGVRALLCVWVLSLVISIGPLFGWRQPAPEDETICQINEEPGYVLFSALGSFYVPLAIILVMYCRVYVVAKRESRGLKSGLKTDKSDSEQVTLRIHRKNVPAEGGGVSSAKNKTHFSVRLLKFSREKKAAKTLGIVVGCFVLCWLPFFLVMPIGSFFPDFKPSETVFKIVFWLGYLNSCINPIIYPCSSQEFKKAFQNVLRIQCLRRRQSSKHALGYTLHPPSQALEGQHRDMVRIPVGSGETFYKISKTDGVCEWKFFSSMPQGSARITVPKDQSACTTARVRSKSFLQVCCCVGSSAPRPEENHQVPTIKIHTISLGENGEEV
Method: as §1
On the fifth day of culture, growth medium was removed from cells grown in the roller bottles, and the cells were washed twice with PBS (Sigma, 120 mM NaCl, 2.7 mM KCl, 10 mM Na2 HPO4 --NaH2 PO4, pH=7.4). Cells were detached from the roller bottles by incubating for 15 minutes at 37° C. in a Tris-EDTA solution (10 mM Tris, 100 mM NaCl, 1 mM EDTA, pH=7.4). […]
as §3, with “Following equilibration, bound radioligand was separated from free on GF/B filters (presoaked in 0.5% polyethyleneamine) using either a Brandel or Packard cell harvester.” left out

[4] = molecular target: T3, α1d (rat) adrenoceptor (Rattus norvegicus, UniProt P23944); experiment: Radioligand binding cloned α1d adrenoceptor expressed in LTK cells, [3H]-prazosin; conditions: LTK cell membranes, [3H]prazosin 0.2 nM
T3 construct: expressed in transfected cells; cDNA from TULCO
T3 sequence (P23944 1-561): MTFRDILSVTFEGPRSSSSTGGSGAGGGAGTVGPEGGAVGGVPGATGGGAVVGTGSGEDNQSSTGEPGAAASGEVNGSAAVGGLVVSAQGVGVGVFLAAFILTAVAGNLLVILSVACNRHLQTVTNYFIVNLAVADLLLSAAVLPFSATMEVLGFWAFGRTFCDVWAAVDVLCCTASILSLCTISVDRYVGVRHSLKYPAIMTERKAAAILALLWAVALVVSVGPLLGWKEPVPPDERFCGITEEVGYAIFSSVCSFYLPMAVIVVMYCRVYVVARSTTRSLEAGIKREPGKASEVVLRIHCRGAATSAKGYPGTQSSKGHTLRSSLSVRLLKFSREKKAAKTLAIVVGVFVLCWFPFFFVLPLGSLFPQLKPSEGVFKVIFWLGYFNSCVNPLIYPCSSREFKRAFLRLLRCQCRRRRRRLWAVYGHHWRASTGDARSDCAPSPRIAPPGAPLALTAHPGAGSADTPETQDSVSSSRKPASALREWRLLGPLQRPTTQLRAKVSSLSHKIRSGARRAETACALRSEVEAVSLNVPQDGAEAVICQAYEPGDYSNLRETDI
Method: as §1
as §2, with “A cell line containing the SnaB30 vector expressing the human erythropoietin gene served as a negative control.” left out

SMILES	pKi [2]	pKi [4]	IUP (pA2) [1]	pKi [3]
COc1ccccc1N1CCN(CCn2c(=O)[nH]c3scc(-c4ccccc4)c3c2=O)CC1 [Example 1, 3-[4-(2-methoxyphenyl)piperazinylethyl]-5-phenylthieno[2,3-d]pyrimidine-2,4-dione]	8.47		7.95	
CCOc1ccccc1OCCN[C@H](C)Cc1ccc(OC)c(S(N)(=O)=O)c1 [tamsulosin, reference compound]	9.69		8.91	10.55
COc1cc2nc(N3CCN(C(=O)C4CCCO4)CC3)nc(N)c2cc1OC (stereo not drawn) [terazosin, reference compound]		9.00	6.97	
COc1ccccc1N1CCN(CCn2c(=O)c3c(-c4ccccc4)csc3n(C)c2=O)CC1 [Example 3, 3-[4-(2-methoxyphenyl)piperazinylethyl]-1-methyl-5-phenylthieno[2,3-d]pyrimidine-2,4-dione]	8.35			

Now from value to molecule, other results behind:

pKi [2]	pKi [4]	SMILES	IUP (pA2) [1]	pKi [3]
8.73		COc1ccccc1N1CCN(CCn2c(=O)[nH]c3sc(-c4ccccc4)cc3c2=O)CC1 [Example 5, 3-[4-(2-methoxyphenyl)piperazinylethyl]-6-phenylthieno[2,3-d]pyrimidine-2,4-dione]	8.47	
8.61		COc1ccccc1N1CCN(CCn2c(=O)[nH]c3sc(C)c(-c4ccccc4)c3c2=O)CC1 [Example 2, 3-[4-(2-methoxyphenyl)piperazinylethyl]-6-methyl-5-phenylthieno[2,3-d]pyrimidine-2,4-dione]		
8.56		COc1ccccc1N1CCN(CCn2c(=O)[nH]c3scc(-c4cccc(C)c4)c3c2=O)CC1 [Example 4, 3-[4-(2-methoxyphenyl)piperazinylethyl]-5-(3-methylphenyl)thieno[2,3-d]pyrimidine-2,4-dione]		
